The target of one assay is X-box-binding protein 1 (Homo sapiens, UniProt P17861). The assay is classed as functional, Cricetulus griseus.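 Note: confirmatory dose-response counter-screen serving a CHOP assay.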
Another assay concerns J774.A1. Kind of assay: Confirmation of image-based Screening Assay for Inhibitors of Phagocytosis. [Related pubchem assays (depositor defined):AID1029, AID1643]. The conditions noted are these: Mus musculus. In kind it is functional, cell-based.
Assay [1] can be described thus: HEK-293T viability loss after treatment – luminescence, T-cell screen hits, cytotoxicity control for TCR NF-kB inhibitor project, dose response (AID 489026).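 Note: cells exposed to compound about 14 hours before the viability readout.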 In kind it is functional, cell-based.
A further assay concerns the target Large T antigen (Simian virus 40, UniProt P03070). The assay is classed as functional, Betapolyomavirus macacae.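 Note: Confirmatory-stage PubChem screen for compounds that inhibit SV40 T antigen.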
The target in assay [2] is DNA dC->dU-editing enzyme APOBEC-3A (Homo sapiens, UniProt P31941). Put plainly: A3A deaminase inhibition for selectivity – biochemical, dose response (AID 504722). In kind it is functional.
The target in assay [3] is Eukaryotic translation initiation factor 4E (Mus musculus, UniProt P63073). Kind of assay: blockers of eIF4G binding by eIF4E – biochemical, TR-FRET, dose response (AID 855).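 Note: potency for disrupting eIF4E binding to eIF4GI seen as loss of FRET.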 The assay is classed as functional.
The target in assay [4] is T1, Voltage-gated N-type calcium channel alpha-1B subunit/Amyloid beta A4 precursor protein-binding family A member 1 (Homo sapiens, UniProt Q00975+Q02410). In kind it is protein assay.
Assay [5] has as its target T1, Voltage-gated N-type calcium channel alpha-1B subunit/Amyloid beta A4 precursor protein-binding family A member 1. The assay is classed as protein assay. This is another data set of the same source.

The source of these data is ChEMBL document CHEMBL1201862, “PubChem BioAssay data set” (2004).

The source made the active and inactive calls.

In general, IC50 refers to the concentration that gives 50% inhibition.

Sequence of X-box-binding protein 1 (P17861 whole entry): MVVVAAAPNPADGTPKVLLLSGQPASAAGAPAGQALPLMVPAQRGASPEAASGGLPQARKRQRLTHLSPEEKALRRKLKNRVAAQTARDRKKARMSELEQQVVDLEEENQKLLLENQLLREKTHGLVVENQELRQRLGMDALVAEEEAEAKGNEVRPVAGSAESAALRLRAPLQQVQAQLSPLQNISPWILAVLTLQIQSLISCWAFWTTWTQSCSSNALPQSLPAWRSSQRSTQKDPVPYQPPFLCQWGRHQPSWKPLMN
T1 sequence (Q00975 whole entry): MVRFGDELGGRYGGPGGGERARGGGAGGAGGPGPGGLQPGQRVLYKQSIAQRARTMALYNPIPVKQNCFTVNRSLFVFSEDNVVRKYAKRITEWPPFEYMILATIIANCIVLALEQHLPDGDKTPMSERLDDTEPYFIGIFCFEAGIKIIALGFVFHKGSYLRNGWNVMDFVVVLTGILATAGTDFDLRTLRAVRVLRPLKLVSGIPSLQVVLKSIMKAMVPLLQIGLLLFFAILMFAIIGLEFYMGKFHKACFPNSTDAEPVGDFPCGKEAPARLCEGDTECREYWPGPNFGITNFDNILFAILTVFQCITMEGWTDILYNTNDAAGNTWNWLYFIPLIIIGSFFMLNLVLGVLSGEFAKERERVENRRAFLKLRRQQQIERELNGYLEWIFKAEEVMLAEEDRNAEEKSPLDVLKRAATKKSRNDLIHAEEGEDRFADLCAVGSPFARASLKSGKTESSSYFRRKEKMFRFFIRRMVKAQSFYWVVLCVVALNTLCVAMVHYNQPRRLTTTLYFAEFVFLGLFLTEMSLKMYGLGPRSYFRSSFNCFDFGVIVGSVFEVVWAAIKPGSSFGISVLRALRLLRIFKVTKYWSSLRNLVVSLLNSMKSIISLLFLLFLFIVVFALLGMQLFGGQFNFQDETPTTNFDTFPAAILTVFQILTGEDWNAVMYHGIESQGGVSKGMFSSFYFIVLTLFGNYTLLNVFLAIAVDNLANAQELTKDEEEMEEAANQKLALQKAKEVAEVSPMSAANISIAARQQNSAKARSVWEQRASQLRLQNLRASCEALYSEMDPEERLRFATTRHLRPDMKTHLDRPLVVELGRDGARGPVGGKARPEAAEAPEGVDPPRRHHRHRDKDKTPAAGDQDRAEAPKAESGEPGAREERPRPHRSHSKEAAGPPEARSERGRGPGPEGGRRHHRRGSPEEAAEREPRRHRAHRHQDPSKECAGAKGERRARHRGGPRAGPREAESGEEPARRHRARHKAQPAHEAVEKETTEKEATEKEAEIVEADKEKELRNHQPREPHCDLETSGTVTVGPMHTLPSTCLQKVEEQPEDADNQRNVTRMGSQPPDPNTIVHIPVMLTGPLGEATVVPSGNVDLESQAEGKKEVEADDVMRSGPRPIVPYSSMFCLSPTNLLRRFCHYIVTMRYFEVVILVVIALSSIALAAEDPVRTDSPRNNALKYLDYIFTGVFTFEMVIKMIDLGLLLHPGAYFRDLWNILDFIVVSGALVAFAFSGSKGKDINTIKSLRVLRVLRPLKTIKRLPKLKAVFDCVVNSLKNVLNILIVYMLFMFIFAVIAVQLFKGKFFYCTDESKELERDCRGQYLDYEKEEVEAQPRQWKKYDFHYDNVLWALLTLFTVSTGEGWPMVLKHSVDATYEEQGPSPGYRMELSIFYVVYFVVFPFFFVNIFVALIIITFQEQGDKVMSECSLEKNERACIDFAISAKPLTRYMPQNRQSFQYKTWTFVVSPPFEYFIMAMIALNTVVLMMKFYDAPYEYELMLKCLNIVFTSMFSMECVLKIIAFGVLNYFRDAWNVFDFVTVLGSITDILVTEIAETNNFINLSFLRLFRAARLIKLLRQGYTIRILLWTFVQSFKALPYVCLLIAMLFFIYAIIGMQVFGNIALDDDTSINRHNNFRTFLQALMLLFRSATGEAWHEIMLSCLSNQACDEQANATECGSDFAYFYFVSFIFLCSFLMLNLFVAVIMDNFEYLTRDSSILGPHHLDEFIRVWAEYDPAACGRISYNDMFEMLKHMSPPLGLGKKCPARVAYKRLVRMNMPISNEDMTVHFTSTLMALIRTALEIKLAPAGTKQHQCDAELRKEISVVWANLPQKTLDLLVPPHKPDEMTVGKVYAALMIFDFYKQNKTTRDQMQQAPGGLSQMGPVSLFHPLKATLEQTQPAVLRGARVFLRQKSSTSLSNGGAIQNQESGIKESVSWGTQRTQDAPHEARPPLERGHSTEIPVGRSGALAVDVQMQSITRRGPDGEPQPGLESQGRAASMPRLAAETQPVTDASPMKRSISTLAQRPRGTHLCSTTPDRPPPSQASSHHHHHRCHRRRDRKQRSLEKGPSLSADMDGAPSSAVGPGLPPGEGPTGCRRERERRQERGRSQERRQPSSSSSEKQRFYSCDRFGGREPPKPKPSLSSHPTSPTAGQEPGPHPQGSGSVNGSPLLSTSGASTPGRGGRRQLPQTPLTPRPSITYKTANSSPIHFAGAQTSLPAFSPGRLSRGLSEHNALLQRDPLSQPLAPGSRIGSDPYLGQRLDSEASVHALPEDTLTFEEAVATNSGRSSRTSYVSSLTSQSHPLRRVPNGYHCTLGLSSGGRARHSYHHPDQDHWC
T1 sequence (Q02410 whole entry): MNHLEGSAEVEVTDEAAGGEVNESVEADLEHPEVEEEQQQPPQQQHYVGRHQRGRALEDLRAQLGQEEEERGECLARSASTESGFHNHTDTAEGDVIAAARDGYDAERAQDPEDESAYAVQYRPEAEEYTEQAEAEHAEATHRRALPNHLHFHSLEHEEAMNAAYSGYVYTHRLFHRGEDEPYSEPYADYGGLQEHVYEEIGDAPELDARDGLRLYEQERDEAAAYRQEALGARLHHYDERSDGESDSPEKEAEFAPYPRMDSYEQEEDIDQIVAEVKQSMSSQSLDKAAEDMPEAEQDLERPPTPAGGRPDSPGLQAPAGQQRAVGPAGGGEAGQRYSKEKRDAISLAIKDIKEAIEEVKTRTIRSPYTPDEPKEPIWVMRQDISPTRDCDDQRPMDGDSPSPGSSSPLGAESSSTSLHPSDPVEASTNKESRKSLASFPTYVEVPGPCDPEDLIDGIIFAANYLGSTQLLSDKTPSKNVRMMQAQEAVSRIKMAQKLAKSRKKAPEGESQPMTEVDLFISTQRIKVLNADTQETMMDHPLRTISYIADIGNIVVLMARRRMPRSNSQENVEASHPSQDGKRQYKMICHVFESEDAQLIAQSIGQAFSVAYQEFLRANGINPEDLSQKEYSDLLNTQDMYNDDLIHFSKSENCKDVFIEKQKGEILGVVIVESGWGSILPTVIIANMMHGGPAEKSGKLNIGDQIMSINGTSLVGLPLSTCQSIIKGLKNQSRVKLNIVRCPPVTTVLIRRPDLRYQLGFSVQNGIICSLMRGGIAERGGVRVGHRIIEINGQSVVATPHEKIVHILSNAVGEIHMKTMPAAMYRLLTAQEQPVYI
Sequence of Large T antigen (P03070 whole entry): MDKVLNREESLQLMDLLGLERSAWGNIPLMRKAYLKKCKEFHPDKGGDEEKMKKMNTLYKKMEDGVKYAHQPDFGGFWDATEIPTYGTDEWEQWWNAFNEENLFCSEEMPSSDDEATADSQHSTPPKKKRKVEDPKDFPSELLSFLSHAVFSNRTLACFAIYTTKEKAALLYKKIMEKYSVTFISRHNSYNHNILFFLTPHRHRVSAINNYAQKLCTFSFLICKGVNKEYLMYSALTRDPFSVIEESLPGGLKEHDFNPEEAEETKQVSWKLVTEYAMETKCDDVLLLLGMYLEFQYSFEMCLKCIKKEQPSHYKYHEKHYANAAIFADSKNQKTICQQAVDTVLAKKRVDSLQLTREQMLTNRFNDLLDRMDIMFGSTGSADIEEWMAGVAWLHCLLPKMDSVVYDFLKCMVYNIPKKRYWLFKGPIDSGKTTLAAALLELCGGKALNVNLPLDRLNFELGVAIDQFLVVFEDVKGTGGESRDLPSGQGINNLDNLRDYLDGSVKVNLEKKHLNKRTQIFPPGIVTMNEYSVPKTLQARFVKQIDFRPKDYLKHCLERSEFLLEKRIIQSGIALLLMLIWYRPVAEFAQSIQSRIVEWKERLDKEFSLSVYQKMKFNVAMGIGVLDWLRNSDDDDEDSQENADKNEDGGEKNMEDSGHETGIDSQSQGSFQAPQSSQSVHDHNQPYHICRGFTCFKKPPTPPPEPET
Sequence of DNA dC->dU-editing enzyme APOBEC-3A (P31941 whole entry): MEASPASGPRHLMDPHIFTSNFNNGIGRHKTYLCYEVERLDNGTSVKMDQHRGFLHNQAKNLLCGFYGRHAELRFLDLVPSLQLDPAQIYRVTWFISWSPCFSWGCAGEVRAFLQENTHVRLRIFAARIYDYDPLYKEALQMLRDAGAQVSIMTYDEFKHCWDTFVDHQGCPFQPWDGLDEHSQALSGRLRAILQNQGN
Sequence of Eukaryotic translation initiation factor 4E (P63073 whole entry): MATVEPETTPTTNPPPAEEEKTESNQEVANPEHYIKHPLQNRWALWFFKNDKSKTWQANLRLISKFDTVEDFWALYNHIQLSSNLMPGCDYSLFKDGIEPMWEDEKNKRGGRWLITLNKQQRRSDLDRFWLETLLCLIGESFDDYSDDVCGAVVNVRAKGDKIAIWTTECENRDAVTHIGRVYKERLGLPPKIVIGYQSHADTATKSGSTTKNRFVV

Take `CCC(C)Sc1nc2c(c(=O)[nH]c(=O)n2C)n1Cc1ccc(Cl)cc1` (centres undefined): the “Absolute IC50 (XBP1)” value on X-box-binding protein 1 came to 10 µM.

With `CC(C)Oc1ccccc1C1CC(=O)Nc2cc3c(cc21)OCO3` (centres undefined), the IC50 in the assay on J774.A1 is > 25 µM (inactive); in assay [1] it was > 80 µM (inactive).

`COc1ccc(N2CSC3=C(C#N)C(c4cccs4)CC(=O)N3C2)cc1` (centres undefined): the IC50 on Large T antigen is 10.7 µM (active); in assay [2] it was 74.1 µM (active); in assay [3] it was > 64 µM (inactive); in assay [4] it was > 50 µM (inactive); in assay [5] it was 8.68 µM (active).

With `CCOc1ccc(N/C=C2/C(=O)NC(=O)N(C(C)(C)C)C2=O)cc1`, the “Absolute IC50 (XBP1)” value on X-box-binding protein 1 is 10 µM.
